Measured values published in EP0606463B1, “NEUROMEDIN B RECEPTOR ANTAGONISTS” (The Administrators of The Tulane Educational Fund, priority 1992, dated 1994).
Where a SMILES comes first, the peptide text is derived from it. Bridges are numbered along the chain shown (N, C = ends). Where no end group is shown, it is not given here. [ ]: non-standard residue; d: D form. 2Nal = N[C@@H](Cc1ccc2ccccc2c1)C(=O)O; d2Nal = N[C@H](Cc1ccc2ccccc2c1)C(=O)O

Assays:
[1] = target: T1, rat NMB receptor (Rattus norvegicus, UniProt P24053); assay: Binding of 125I-[D-Tyr0]NMB to NMB-R transfected BALB 3T3 cells; conditions: for fold by which cyclo SS-octa was more potent than the analog: inhibition of ^125I-[Tyr^0]NMB binding to NMB-R transfected cells; for decrease in NMB receptor affinity compared with #1: structure-function comparison of Table 1 values; for fold greater affinity for the NMB than the GRP receptors: NMB-R transfected cells versus GRP receptors on rat pancreatic acini
T1 construct: a full length NMB-preferring bombesin receptor clone generated from rat esophagus; expressed in transfected cells; host or cells: BALB 3T3 cells
T1 sequence (P24053 1-390): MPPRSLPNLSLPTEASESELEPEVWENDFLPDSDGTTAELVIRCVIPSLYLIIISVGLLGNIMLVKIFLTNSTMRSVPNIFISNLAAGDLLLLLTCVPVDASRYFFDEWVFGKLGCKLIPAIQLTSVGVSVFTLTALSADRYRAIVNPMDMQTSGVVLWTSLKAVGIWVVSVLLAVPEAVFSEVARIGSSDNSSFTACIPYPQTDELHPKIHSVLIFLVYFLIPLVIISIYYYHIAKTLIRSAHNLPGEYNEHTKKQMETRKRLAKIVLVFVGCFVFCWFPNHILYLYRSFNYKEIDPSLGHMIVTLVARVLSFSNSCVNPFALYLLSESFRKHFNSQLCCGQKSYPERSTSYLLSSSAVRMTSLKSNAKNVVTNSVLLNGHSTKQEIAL
Experimental: (§1) Cells were passaged every 3-4 days at confluence, using 0.1% trypsin in 1 mM EDTA. Rat glioblastoma C-6 tumor cells were maintained similarly and were passaged weekly at confluence. Both cell lines were cultured at 37°C in a 5% CO2 atmosphere. Rat AR 42J pancreatic acinar cells were cultured in Dulbecco's modified Eagle's medium (DMEM) without antibiotics and supplemented with 10% (vol/vol) fetal calf serum. The incubation atmosphere consisted of 10% CO2-90% humidified air at 37°C.

[2] = target: T2, NMB Receptor (Rattus norvegicus, UniProt P24053); assay: [3H]inositol phosphates (IP) in NMB-R transfected cells; format: cell-based; conditions: for NMB-R Transfected Cells [^3H]IP Alone (10 µ M): analog 10 µM alone, no-additive control 13 ± 3; for NMB-R Transfected Cells [^3H]IP Plus NMB (3 nM): analog 10 µM plus NMB 3 nM, NMB without analog 186 ± 58; for effect on NMB-stimulated increase in [^3H]IP: NMB-R transfected cells, 3 nM NMB, peptide 10 µM
T2 construct: a full length NMB-preferring bombesin receptor clone generated from rat esophagus; expressed in transfected cells; host or cells: BALB 3T3 cells
T2 sequence (P24053 1-390): T1 sequence (P24053 1-390)
Experimental: as §1, with “As described previously [Wada, E., et al. Neuron 6:421 (1991)], BALB 3T3 cells expressing a stably transfected rat NMB receptor (NMB-R transfected cells) were obtained using calcium phosphate precipitation of a full length NMB-preferring bombesin receptor clone generated from rat esophagus and subcloned into a modified version of the pCD2 plasmid. Cells” for “Cells”
(§2) Total phosphoinositides in C-6 cells and in NMB-R transfected cells were determined as described previously, with minor modifications [Benya, R. V. et al. Mol. Pharmacol. 42:1058 (1992); and Wang, L-H. et al. Biochem. J. 286:641 (1992)]. Cells were grown to confluence in 24-well plates and then loaded with 100 µCi/ml myo-[2-^3H]inositol in Dulbecco's modified essential medium with 2% fetal bovine serum at 37°C for 48 hrs. Cells were washed and incubated in phosphoinositide buffer (standard buffer additionally containing 10 mM LiCl, 20 mM HEPES, 2 mM CaCl2, 2% BSA, and 1.2 mM MgSO4) for 15 min and then for 60 min at 37°C with agonists at various concentrations or with 3 nM NMB (a half-maximal effective concentration) and possible antagonists at different concentrations. Reactions were halted using ice-cold 1% HCl in methanol, and the inositol phosphates (IP) were isolated as described previously [Bologna, M. et al. Cancer 63:1714 (1989); and Endo, T. et al. J. Endocrinol. 131:313 (1991)]. Briefly, after loading of the anion exchange column, free [^3H]glycerophosphorylinositol was removed by washing with 5 mM disodium tetraborate in 60 mM sodium formate. Total [^3H]inositol phosphates were then eluted using 100 mM formic acid in 1.0 M ammonium formate as described previously [Benya, R. V. et al. Mol. Pharmacol. 42:1058 (1992); and Wang, L-H. et al. Biochem. J. 286:641 (1992)].

[3] = target: T3, GRP Receptor (Rattus norvegicus, UniProt P52500); assay: Amylase release from rat pancreatic acini; format: cell-based; conditions: for Rat Pancreatic Acini Amylase Release Alone (10µM): analog 10 µM alone, no-additive control 4 ± 1; for Rat Pancreatic Acini Amylase Release Plus Bn(0.3 nM): analog 10 µM plus Bn 0.3 nM, Bn without analog 15 ± 1
T3 construct: from tissue; host or cells: dispersed pancreatic acini
T3 sequence (P52500 whole entry): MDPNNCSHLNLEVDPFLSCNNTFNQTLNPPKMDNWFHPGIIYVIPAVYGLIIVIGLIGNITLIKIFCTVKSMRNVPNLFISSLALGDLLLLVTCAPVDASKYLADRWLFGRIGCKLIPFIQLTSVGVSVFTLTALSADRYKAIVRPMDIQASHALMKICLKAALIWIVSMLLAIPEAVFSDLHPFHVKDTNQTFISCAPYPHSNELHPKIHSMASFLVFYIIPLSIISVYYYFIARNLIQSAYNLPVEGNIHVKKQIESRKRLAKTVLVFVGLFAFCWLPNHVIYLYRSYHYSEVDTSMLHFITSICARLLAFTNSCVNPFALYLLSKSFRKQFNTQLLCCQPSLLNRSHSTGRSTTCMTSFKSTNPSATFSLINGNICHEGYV

[4] = target: T4, NMB receptors on rat olfactory bulb membranes (Rattus norvegicus, UniProt P24053); assay: NMB membrane receptor assay (rat olfactory bulb membranes); format: binding; conditions: rat olfactory bulb versus AR 42J membranes (Table 4)
T4 construct: Membranes were prepared from rat olfactory bulb (NMB membrane receptor assay); from tissue; host or cells: rat olfactory bulb membranes
T4 sequence (P24053 1-390): T1 sequence (P24053 1-390)

[5] = target: T5, NMB receptors on C-6 glioblastoma cells (Rattus norvegicus, UniProt P24053); assay: NMB-stimulated [3H]IP in C-6 glioblastoma cells; format: cell-based
T5 construct: endogenous in cells; host or cells: rat glioblastoma C-6 cells
T5 sequence (P24053 1-390): T1 sequence (P24053 1-390)
Experimental: as §2, with “for 60 min at 37°C with agonists at various concentrations or with 3 nM NMB (a half-maximal effective concentration) and possible antagonists at different concentrations.” left out

[6] = tested on: endothelin-1-simulated increases in [^3H]IP; assay: Endothelin-1-stimulated [3H]IP in C-6 glioblastoma cells; format: cell-based, rat
Experimental: as §2

Compound | fold by which cyclo SS-octa was more potent than the analog [1] | decrease in NMB receptor affinity compared with #1 [1] | NMB-R Transfected Cells [^3H]IP Alone (10 µ M) [2] | NMB-R Transfected Cells [^3H]IP Plus NMB (3 nM) [2] | Rat Pancreatic Acini Amylase Release Alone (10µM) [3] | Rat Pancreatic Acini Amylase Release Plus Bn(0.3 nM) [3] | fold higher affinity for NMB receptors than somatostatin receptors [4] | [^3H]IP, Peptide Added NMB (10 nM) ([5]; C-6 glioblastoma cells, analog 10 µM plus NMB 10 nM) | [^3H]IP, Peptide Added None ([5]; C-6 glioblastoma cells, analog 10 µM, no agonist, control 7.2±1.0) | effect on NMB-stimulated increases in [^3H]IP in C-6 glioblastoma cells ([5]; Table 3) | [^3H]IP, Peptide Added ET-1 (0.1 nM) ([6]; C-6 glioblastoma cells, analog 10 µM plus ET-1 0.1 nM) | effect on endothelin-1-simulated increases in [^3H]IP in C-6 cells ([6]; Table 3) | [^3H]IP, ET-1 (0.1 nM) Alone ([6]; C-6 glioblastoma cells, agonist without analog, basal 7.2±1.0) | fold greater affinity for the NMB than the GRP receptors [1] | effect on NMB-stimulated increase in [^3H]IP [2]
CC(C)[C@@H]1NC(=O)[C@H](Cc2c[nH]cn2)NC(=O)[C@@H](Cc2c[nH]c3ccccc23)NC(=O)[C@H](Cc2ccc(O)cc2)NC(=O)[C@@H](NC(=O)[C@H](N)Cc2ccc3ccccc3c2)CSSC[C@@H](C(=O)N[C@@H](Cc2ccc3ccccc3c2)C(N)=O)NC1=O [Analog #14, [His^5]-cyclo SS-octa] (H-[d2Nal]CY[dW]HVC[2Nal]-NH2; disulfide 2-7; N-terminus assumed) | 45 fold | 50 fold | 8 ± 1 dpm x 10^3 | 97 ± 7 dpm x 10^3 | 2 ± 1 % total | 13 ± 1 % total | 3 fold |  |  |  |  |  |  |  | 
C[C@@H](O)[C@H](NC(=O)[C@@H]1CSSC[C@H](NC(=O)[C@H](N)Cc2ccc3ccccc3c2)C(=O)N[C@@H](Cc2ccc(O)cc2)C(=O)N[C@H](Cc2c[nH]c3ccccc23)C(=O)N[C@@H](CCCCN)C(=O)N[C@@H](Cc2ccc3ccccc3c2)C(=O)N1)C(N)=O [Analog #2, [Nal^6,Thr^8]-cyclo SS-octa] | 4 fold | 4 fold | 11 ± 2 dpm x 10^3 | 39 ± 7 dpm x 10^3 | 5 ± 1 % total | 13 ± 1 % total |  | 14.3 ± 4.2 dpm x 10^3 | 7.3±1.2 dpm x 10^3 | inhibited | 11.2±1.9 dpm x 10^3 | had no effect |  |  | 
endothelin 1 (CSCSSLMDKECVYFCHLDIIW; disulfide 1-15, 3-11; ends not checked; UniProt P05305 53-73, looked up) [ET-1, agonist from Peninsula Laboratories, reference compound] |  |  |  |  |  |  |  |  |  |  |  |  | 11.0±2.1 dpm x 10^3 |  | 
CC(C)[C@@H]1NC(=O)[C@H](CCCCN)NC(=O)[C@@H](Cc2c[nH]c3ccccc23)NC(=O)[C@H](Cc2ccc(O)cc2)NC(=O)[C@@H](NC(=O)[C@H](N)Cc2ccc3ccccc3c2)CSSC[C@@H](C(=O)N[C@H](Cc2ccc3ccccc3c2)C(N)=O)NC1=O [Analog #8, [D-Nal^8]-cyclo SS-octa] (H-[d2Nal]CY[dW]KVC[d2Nal]-NH2; disulfide 2-7; N-terminus assumed) | 9 fold | 6 fold | 10 ± 3 dpm x 10^3 | 67 ± 13 dpm x 10^3 | 2 ± 1 % total | 14 ± 1 % total |  |  |  |  |  |  |  |  | 
CC(C)[C@@H]1NC(=O)[C@H](CCCCN)NC(=O)[C@@H](Cc2ccc3ccccc3c2)NC(=O)[C@H](Cc2ccc(O)cc2)NC(=O)[C@@H](NC(=O)[C@H](N)Cc2ccc3ccccc3c2)CSSC[C@@H](C(=O)N[C@@H](Cc2ccc3ccccc3c2)C(N)=O)NC1=O [Analog #17, [D-Nal^4]-cyclo SS-octa] (H-[d2Nal]CY[d2Nal]KVC[2Nal]-NH2; disulfide 2-7; N-terminus assumed) | 2 fold | almost no effect on affinity | 12 ± 4 dpm x 10^3 | 15 ± 2 dpm x 10^3 | 4 ± 2 % total | 19 ± 1 % total |  |  |  |  |  |  |  | > 100 fold | completely inhibited
NCCCC[C@@H]1NC(=O)[C@@H](Cc2c[nH]c3ccccc23)NC(=O)[C@H](Cc2ccc(O)cc2)NC(=O)[C@@H](NC(=O)[C@H](N)Cc2ccc3ccccc3c2)CSSC[C@@H](C(=O)N[C@@H](Cc2ccc3ccccc3c2)C(N)=O)NC(=O)[C@H](Cc2ccccc2)NC1=O [Analog #13, [Phe^6]-cyclo SS-octa] (H-[d2Nal]CY[dW]KFC[2Nal]-NH2; disulfide 2-7; N-terminus assumed) | 2 fold |  | 10 ± 1 dpm x 10^3 | 9 ± 4 dpm x 10^3 | 3 ± 1 % total | 14 ± 1 % total |  |  |  |  |  |  |  | > 100 fold | completely inhibited
